Experimental findings from patent US11083725B2 (priority 2014, dated 2021) are described below.

Broadly, the IC50 is the concentration at which inhibition is half-maximal.

Entries after “also recorded” stand apart in the source; their conditions may differ. Like-named read-outs stand apart in the source and are kept apart here.

In data set [1] the test system is CA09. The experiment in a line: High-throughput modified TCID50 viral titer of drug-screen supernatant on MDCK cells (area under the curve). It is filed as cell-based, influenza virus H1N1 strain A/CA/04/2009. Particulars: supernatant of CA09-infected NHBE cells titrated on MDCK cells.
In data set [2] the test system is NHBE cells. The experiment in a line: cells. It counts as cell-based, human.
Data set [3] relates to CA09. As to the kind of experiment: microbe, parasite or virus in culture. It counts as cell-based, influenza virus H1N1 strain A/CA/04/2009. Particulars: for log reduction at 10 pM / log reduction at 0.0001 µM / log reduction at 0.001 µM / log reduction at 0.01 µM / log reduction at 0.1 µM / log reduction at 1 µM / log reduction at 10 µM / log reduction at 100 µM: NHBE, read-out: TCID50 (per mL); for Viral Titer Therapeutic: follow up validation titer, therapeutic treatment.

In data set [4] the test system is BMDCs. As to the kind of experiment: Isotopically labeled substrate utilization in bone marrow-derived dendritic cells. It is filed as cell-based, mouse.
The test system of data set [5] is CA09. As to the kind of experiment: In vivo drug tests in CA09-infected mice: weight loss, survival, lung viral titer. The arrangement: species or system C57/B6 mice. Particulars: for weight loss / survival: mice infected intranasally with CA09; for weight loss: daily drug for 7 days from 2 days before infection (NVP-BEZ235 25 mg/kg oral gavage; clotrimazole 120 mg/kg ip; α-mangostin 8 mg/kg ip); for survival: daily drug for 7 days from 2 days before infection, monitored 15 days.

The test system of data set [6] is NHBE cells. As to the kind of experiment: Seahorse metabolic flux (ECAR, OCR, PPR) in NHBE cells. It is filed as cell-based, human. The settings on record: drug 4 hours then infection at 1 MOI with CA04, read 17 hours later. As for the experimental part: OCR and ECAR were measured with the XF-24 Extracellular Flux Analyzer (Seahorse Bioscience, North Billerica, Mass.). Briefly, 2.5×10^5 cells/well were seeded with XF media (non-buffered DMEM with 25 mM glucose, 2 mM L-glutamine, and 1 mM sodium pyruvate) in a Cell-Tak (BD Biosciences, San Jose, Calif.)-coated plate 17 hours after infection and 1 hour before loading the plate into the instrument.
Referring to FIG. 6A-C, NHBE cells were grown and differentiated in 24-well Seahorse plates and left untreated (control), infected for 17 hours at MOI 1 with either viable virus or a […] virus (CA09 or BPL, respectively) or stimulated with TLR agonists lipopolysaccharide (LPS), polyinosinic polycytidylic acid (PolyIC), or Resiquimod (R848). After treatment, the extracellular acidification rate (ECAR) (6A), oxygen consumption rate (OCR) (6B), and proton production rate (PPR) (6C) of NHBE cells were monitored for 2 hours. Error bars represent standard deviation from the mean of triplicate samples, where data represent 3 independent experiments.
Referring to FIG. 12C-E, NHBE cells were seeded in XF24 SEAHORSE cell […] for 4 hours followed by infection at 1 MOI with CA04. 17 hours later plates were processed and read on Seahorse following manufactures protocol.

Data set [7] relates to NHBE cells. The experiment in a line: Seahorse spare respiratory and glycolytic capacity of infected NHBE cells. It is filed as cell-based, human. The settings on record: 10 nM BEZ235 for 1 hr, infected 17 hours at MOI 1 with CA04.
Another data set concerns PI3K/mTOR pathway. As to the kind of experiment: Immunoblot of PI3K/mTOR pathway phosphorylation in infected NHBE cells. It counts as cell-based, human. A general note: In western blotting, separated proteins are transferred to a membrane and probed.
Another data set concerns cMyc. As to the kind of experiment: Influenza-induced cMyc expression in NHBE cells. It is filed as cell-based, human. The settings on record: NHBE cells infected with CA04 up to 17 hours at MOI 1. Here is the method: Referring to FIG. 13B, NHBE cells were infected with CA04 for up to 17 hours at MOI 1, harvested at indicated time and RNA purified from lysates then quantified with […].

A short description of data set [8]: Whole-body plethysmography of respiratory parameters in infected treated mice.
Data set [9] is described as follows: Blood chemistry and blood cell counts in treated infected mice. Particulars: 25 mg/kg daily oral gavage. It is filed as in vivo, C57/B6 mice. Here is the method:
Referring to FIG. 9A-E, daily drug treatment was started 48 hours before intranasal infection with CA09 at an infectious dose of […] and maintained for 7 days. […] Data represent 3 mice per group.

Data set [10] relates to BMDCs. It is filed as cell-based, mouse.
Where [11] appears, read: infected mice, whole-body plethysmography.

For `O=CC[C@@H](O)[C@H](O)[C@H](O)CO` [2-deoxyglucose], in the data set with CA09 [1], the “viral titers in the high-throughput screening” value is “reduced”. In the data set with NHBE cells [2], the “NHBE cell survival / cell death after infection” value (from here on “NHBE cell survival / cell death”) is “preferentially killed infected cells”. In addition, in the data set with CA09 [3] (FIG. 12B, NHBE supernatant titered on MDCK cells), the “viral titer following therapeutic treatment” value is “efficient at reducing viral load”. Further, in the data set on CA09 [3], the log reduction at 10 pM is 0.94, the log reduction at 0.0001 µM was 0.35, the log reduction at 0.001 µM was 0.48 and the log reduction at 0.01 µM was determined as 0.43. Also, in the data set with CA09 [3], the log reduction at 0.1 µM is 0.28, the log reduction at 1 µM came out at 0.87, the log reduction at 10 µM was found to be 1.01 and the log reduction at 100 µM turned out to be 0.85. In the data set on CA09 [3], the “Viral Titer Therapeutic” value is given as “Reduced”.
On to lipopolysaccharide [LPS], for which, in the data set with BMDCs [4], the “glycolysis (radiolabeled metabolic substrate assay)” value is on record as “slight increase” and the “other substrate use measures (radiolabeled metabolic substrate assays)” value is reported as “little effect”.
For the compound `COc1c(O)cc2oc3cc(O)c(CC=C(C)C)c(O)c3c(=O)c2c1CC=C(C)C` [α-Mangostin], in the data set on CA09 [5], the weight loss entry is recorded as “little effect” and the survival entry is “little effect”. Also, in the data set on NHBE cells [2], the “Cell Death Prophylactic” value is given as “C > V”, the “Cell Death Therapeutic” value was “C > V” and the “NHBE cell survival / cell death” value is given as “differential effects”. The “NHBE cell survival / cell death” value in the data set on NHBE cells [2] (listed as α-mangostin) was “differentially affected”. In the data set with CA09 [3], the “viral titers in NHBE cells (validated drug hits)” value (from here on “viral titers in NHBE cells”) is “consistent reduction”. The log reduction at 10 pM in the data set on CA09 [3] (Prophylactic Drug Treatment, Drug Dose 10 pM, […]) worked out at 0.74. The log reduction at 0.0001 µM in the data set on CA09 [3] (Prophylactic Drug Treatment, Drug Dose 100 pM, […]) was 0.69. Also, the log reduction at 0.001 µM in the data set with CA09 [3] (Prophylactic Drug Treatment, Drug Dose 1 nM, […]) came to 0.54. The log reduction at 0.01 µM with CA09 [3] (Prophylactic Drug Treatment, Drug Dose 10 nM, […]) was found to be 0.65. Also, the log reduction at 0.1 µM with CA09 [3] (Prophylactic Drug Treatment, Drug Dose 100 nM, […]) is 0.84. Besides, the log reduction at 1 µM in the data set on CA09 [3] (Prophylactic Drug Treatment, Drug Dose 1 μM, […]) was 0.71. In addition, the log reduction at 10 µM with CA09 [3] (Prophylactic Drug Treatment, Drug Dose 10 μM, […]) was 1.2. Moreover, the log reduction at 100 µM in the data set with CA09 [3] (Prophylactic Drug Treatment, Drug Dose 100 μM, […]) came out at 0.85. In addition, the “Viral Titer Prophylactic” value in the data set on CA09 [3] ([…], prophylactic treatment) was “Reduced”. Further, the “viral titers in NHBE cells” value with CA09 [3] (listed as α-mangostin) is recorded as “consistently reduced”.
Consider `O=C1Nc2ccc3ncsc3c2/C1=C/c1cnc[nH]1` [Imidazolo-oxindole C 16], for which, in the data set on CA09 [1], the “viral titers in the high-throughput screening” value is “reduced”. Moreover, in the data set on NHBE cells [2], the “Cell Death Therapeutic” value is “V > C”.
On to `Cn1c(=O)n(-c2ccc(C(C)(C)C#N)cc2)c2c3cc(-c4cnc5ccccc5c4)ccc3ncc21` [NVP-BEZ235], for which the “viral titer from the lungs (HA titer)” value with CA09 [5] (four days following infection, NVP-BEZ235 25 mg/kg oral gavage, titered on MDCK cells, 25 mg/kg) is “significant reduction; also recorded: significantly lower”. Besides, the influenza-induced mortality entry in the data set with CA09 [5] (infected adult mice) was “reduces”. In addition, in the data set on CA09 [5], the weight loss entry is on record as “no significant effects; also recorded: no effect” and the survival entry is “profound improvement; also recorded: dramatically improved”. The “viral titers in the high-throughput screening” value in the data set with CA09 [1] is “reduced”. Moreover, in the data set with NHBE cells [2], the “Cell Death Prophylactic” value was “C = V”, the “Cell Death Therapeutic” value is on record as “C > V” and the “NHBE cell survival / cell death” value is reported as “differentially affected; also recorded: differential effects”. The “influenza induced metabolic flux (ECAR, OCR, PPR)” value with NHBE cells [6] is listed as “reverse influenza induced metabolic flux to untreated levels; also recorded: reversed”. In the data set on NHBE cells [7], the “glycolytic capacity of infected NHBE” value was “slightly reducing; also recorded: slightly reduces” and the “spare respiratory capacity of infected NHBE” value is “restores”. For the same compound, in the data set with PI3K/mTOR pathway, the 4E-BP1 phosphorylation result was “completely abolished”, the 70S6K phosphorylation entry was “completely abolished”, the mTOR phosphorylation result is “reduces” and the “phosphorylation of PRAS40” value was “time dependent decrease”. Also, the “influenza-induced cMyc expression” value with cMyc is listed as “ablates”. Also, in data set [8] (infected adult mice), the respiratory function result is “augments”. For the same compound, in data set [8] (setting [11]), the breath frequency entry is listed as “decreases”, the expiration time entry is recorded as “increases”, the inspiration time entry is “increases” and the mid-expiratory tidal flow result is on record as “reduction”. Besides, in [8] (setting [11]), the minute volume entry is “decreases” and the tidal flow result is listed as “decreases”. In the data set on CA09 [3], the “Viral Titer Prophylactic” value is recorded as “Reduced”, the “viral titers in NHBE cells” value was “consistently reduced; also recorded: consistent reduction; also recorded: one of the most significant drops; also recorded: highest efficacy”, the log reduction at 10 pM was 0.75 and the log reduction at 0.0001 µM is 0.42. Further, in the data set with CA09 [3], the log reduction at 0.001 µM worked out at 0.5, the log reduction at 0.01 µM turned out to be 0.53, the log reduction at 0.1 µM amounted to 0.29 and the log reduction at 1 µM was 0.51. For the same compound, in the data set on CA09 [3], the log reduction at 10 µM worked out at 0.97 and the log reduction at 100 µM is 0.91. Also, in data set [9], the tolerability result is given as “well tolerated”. Moreover, in [9] (bled on day 7), the blood amylase result is recorded as “significantly altered”; the blood protein levels entry is “unchanged”; the “dehydration as measured by blood electrolyte levels and renal function” value was “stable”; the “immune cell proliferation in the blood” value is “no impact”. Moreover, the “signs of toxicity in the blood chemistry analysis or in critical blood cell counts” value in [9] (bled on day 7) is reported as “no signs of toxicity”.
`O=C(Nc1cccc(Nc2ncc(Br)c(NCCc3cnc[nH]3)n2)c1)N1CCCC1` [BX-912]: the “viral titers in the high-throughput screening” value in the data set on CA09 [1] is “reduced”. Further, in the data set with CA09 [3], the “Viral Titer Therapeutic” value is on record as “Reduced”.
On to “polyinosinic polycytidylic acid [PolylC]”, for which, in the data set on BMDCs [10], the “all metabolites measured in flux assays” value was “extreme drops”.
As to `Clc1ccccc1C(c1ccccc1)(c1ccccc1)n1ccnc1` [Clotrimazole], in the data set with CA09 [5], the weight loss result was “little effect” and the survival result was “little effect”. In the data set with NHBE cells [2], the “Cell Death Prophylactic” value is on record as “C > V” and the “NHBE cell survival / cell death” value is “differentially affected; also recorded: differential effects”. Further, in the data set with CA09 [3], the “Viral Titer Prophylactic” value is given as “Reduced”, the “viral titers in NHBE cells” value is recorded as “consistently reduced; also recorded: consistent reduction”, the log reduction at 10 pM was 0.71 and the log reduction at 0.0001 µM was 0.85. In addition, in the data set with CA09 [3], the log reduction at 0.001 µM was determined as 0.84, the log reduction at 0.01 µM was 0.7, the log reduction at 0.1 µM amounted to 0.48 and the log reduction at 1 µM turned out to be 0.95. Further, in the data set with CA09 [3], the log reduction at 10 µM was determined as 0.9 and the log reduction at 100 µM came to 1.07.
With `C=C(C)[C@@H]1CC[C@]2(C(=O)O)CC[C@]3(C)[C@H](CC[C@@H]4[C@@]5(C)CC[C@H](O)C(C)(C)[C@@H]5CC[C@]43C)[C@@H]12` [Betulinic Acid], the IC50 with NHBE cells [2] (Homo sapiens, NHBE, read-out: IC50, Prophylactic Treatment, Viral Infected) was 2000 nM. Also, in the data set with CA09 [3], the log reduction at 10 pM worked out at 0.37, the log reduction at 0.0001 µM was found to be 0.63, the log reduction at 0.001 µM was 0.51 and the log reduction at 0.01 µM was found to be 0.55. Also, in the data set on CA09 [3], the log reduction at 0.1 µM was 0.31, the log reduction at 1 µM came to 0.96, the log reduction at 10 µM came to 0.61 and the log reduction at 100 µM is 0.59.
